# According to patent US8491891B2, “Human beta-glucuronidase mutants with elevated enzymatic activity under physiological conditions and method for identifying such” (Academia Sinica, priority 2008, dated 2013):
# Read-outs that look alike come from different tables or passages of the source. Marks after values point to notes of the source that are not given here.
# How the values were obtained:
# [1] = Intratumoral concentrations of CPT-11, SN-38 and SN-38G after CPT-11 treatment (SPE-HPLC)
# Description: Tumors were collected 2, 8 and 24 h after CPT treatment, immediately dispersed in ice-cold acidic methanol (methanol: water: perchloric acid=20:20:1), and homogenized 60 sec on an Ultraturax tissue homogenizer at 20,000 rpm. The samples were clarified by centrifugation at 15,000 g for 5 min at 4° C. Supernatants were diluted with 0.1 M KH2PO4 and then separated by SPE-HPLC on a μBondapack column with 27% acetonitrile in 0.1 M potassium phosphate buffer pH=2.6. […] These three analytes were quantified by comparison with standard curves generated with analyte concentrations ranging from 2.0 pg to 200 ng.
# [2] = system: EJ human bladder carcinoma cells; assay: Sensitivity of EJ cells to CPT-11, SN-38, SN-38G (3H-thymidine incorporation)
# Description: (§1) Cell viability was examined by measuring ^3H-thymidine incorporation into cellular DNA after the cells were cultured for an additional 24 h in fresh medium.
# EJ/mβG cells = assay: Sensitivity of EJ/mβG cells to CPT-11, SN-38, SN-38G (3H-thymidine incorporation); settings: for IC50: read-out: IC50 (cytotoxicity), EJ/mβG cells
# Description: EJ human bladder carcinoma cells were cultured in RPMI medium supplemented with 10% bovine calf serum in a humidified atmosphere of 5% CO2 in air at 37° C.
# as §1
# [3] = Serum concentrations of CPT-11, SN-38 and SN-38G after CPT-11 administration; settings: for Serum levels in mice bearing EJ versus EJ/mβG tumor: 2 h after CPT-11 administration; for Serum concentrations in mice bearing EJ versus EJ/mβG tumor: 8 h or 24 h after CPT-11 administration
# [4] = Relative activity of membrane-tethered human β-glucuronidase variants on 3T3 cells by flow cytometry (FL4/FL1); assay type: cell-based; settings: membrane-tethered enzyme, pH 7.0, substrate ELF97 β-D-glucuronide
# Description: The 3T3 cell libraries mentioned above were screened by FACS analysis for cells that express human β-glucuronidase variants with elevated enzymatic activity. 10^7 3T3 cells expressing membrane-bound human β-glucuronidase variants were washed and suspended in 0.4 ml BSA/HBSS (5.4 mM KCl, 0.3 mM Na2HPO4, 0.4 mM KH2PO4, 4.2 mM NaHCO3, 1.3 mM CaCl2, 0.5 mM MgCl2, 0.6 mM MgSO4, 137 mM NaCl, 5.6 mM D-glucose, pH 7.4) containing 0.5% bovine serum albumin (BSA) and 20 μg/ml 7G8-FITC for 30 min at 4° C. Cells were then washed and incubated with 25, 50 or 100 μM ELF97 β-D-glucuronide at defined pH values in 50 mM Bis-Tris, 25 mM glucose, 85.6 mM NaCl, 5.4 mM KCl, 0.6 mM MgSO4, 1.3 mM CaCl2) at 37° C. for 10 min. The cells were washed with ice-cold 0.5% BSA/HBSS and suspended in 0.5% BSA/HBSS containing 5 μg/ml propidium iodide (Sigma). Cells were then sorted on a FACSVantage DiVa (Becton, Dickinson and Company, Franklin Lakes, N.J.) equipped with an Enterprise IIC argon laser for dual excitation at 488 and 351-364 nm. Dead cells (propidium iodide positive, high FL3 fluorescence) were gated out before 7G8-FITC immunofluorescence was detected at excitation/emission wavelengths of 488/515 nm (FL1) and ELF97 was detected at excitation/emission wavelengths of 351/530 nm (FL4). […] The sorted cells were cultured for 4-10 days for sequential rounds of cell sorting or RNA extraction. Flow cytometer data was analyzed using Flowjo (Tree star, Ashland, Oreg.).
# Independent 3T3 clones (5×10^7) in library EP2 mentioned above were immunofluorescence stained with 7G8-FITC and reacted with ELF97 β-D-glucuronide at pH 7.0. Sixteen individual cell clones were isolated after three rounds of sorting and the human β-glucuronidase genes were sequenced. […] Table 1 below lists amino acid substitutions in five exemplary variants and their relative enzymatic activities.
# [5] = Kinetic values (Km, kcat) of soluble recombinant human β-glucuronidase and variants; assay type: biochemical
# Description: Recombinant His-tagged wild-type human β-glucuronidase and its variants (soluble) were produced in and purified from stable 3T3 fibroblast lines, following the method described above also the method described in Wu et al., Biotechnol Appl Biochem 40:167-172 (2004).
# The pH-dependent enzyme activities of the above-mentioned recombinant human beta-glucuronidase and variants were measured in triplicate with 0.1 mM ELF97 β-D-glucuronide at 37° C. for 30 minutes at a defined pH ranging from 3-10 in a beta-glucuronidase reaction buffer (50 mM Bis-Tris, 50 mM triethanol amine, 100 mM acetic acid, 0.1% BSA). The reaction was quenched by adding an equal volume of a stop buffer (2 M Tris-HCl, 0.8 M sodium bicarbonate, pH 8). The fluorescence of ELF97 was measured in a Gemini EM microplate spectrofluorometer (Molecular Device, Sunnyvale, Calif.) at excitation/emission wavelengths of 355/555 nm. Kinetic values for human beta-glucuronidase substrate hydrolysis were determined by diluting ELF97 β-D-glucuronide (2 mM) in a pH 4.5 or pH 7.0 beta-glucuronidase reaction buffer 1:1 with defined concentrations of human beta-glucuronidase in 200 μl. Fluorescence was immediately measured under thermal control at 37° C. for 8-10 min. The measurement was repeated using the same amount of enzyme at different substrate concentrations in an optimal range. The acquired readings were converted to product concentration based on preestablished standard curves. Double reciprocal plots were used to determine Km and kcat. Kinetic assays were performed at least 3 times and mean values were calculated. The stability of recombinant human beta-glucuronidase variants was carried out by measuring their enzymatic activity at time 0 and again after incubating 5 μg purified enzymes in PBS (containing 0.5 mg/ml BSA) at 37° C. for 14 days. The enzymatic activities of the human beta-glucuronidase variants were measured in triplicate with 0.5 mM 4-methylumbelliferyl β-D-glucuronide at 37° C. for 15 minutes at pH 7.0 in β-glucuronidase reaction buffer. The reaction was terminated by adding an equal volume of a stop buffer (1 M glycine, 0.5 M sodium bicarbonate, pH 11) and the fluorescence was measured at excitation/emission wavelengths of 355/460 nm in a microplate spectrofluorometer.
# [6] = Enzymatic activity of purified position-545 single mutants at pH 7.0; assay type: biochemical; settings: purified enzyme
# Text: DNA plasmids were extracted from 12 individual cell clones and subjected to DNA sequencing to examine mutations in the genes encoding human β-glucuronidase variants. All human β-glucuronidase variants being examined had mutations at position 545 (50% T→A and 50% T→S). To determine the effect of amino acid substitutions at position 545 on enzyme activity, the single amino acid mutants T545A (E1-A), T545G (E1-G), T545S (E1-S) and T545Y (E1-Y) were generated and purified from the culture medium of stably transfected fibroblasts. […] Thus, the single amino acid substitution at position 545 affected human β-glucuronidase activity at neutral pH.
# [7] = 24 h after CPT-11 10 mg/kg i.v.
Molecule,IC50 (EJ/mβG cells; pH 6.6) [nM],IC50 (EJ/mβG cells; pH 7.4) [nM],Serum levels in mice bearing EJ versus EJ/mβG tumor [3],Serum concentrations in mice bearing EJ versus EJ/mβG tumor [3],Relative activity (FL4/FL1 normalized to wild-type human β-glucuronidase) [4],"Km ([5]; pH 4.5, 37° C.) [µM]","kcat ([5]; pH 4.5, 37° C.) [s⁻¹]","Km ([5]; pH 7.0, 37° C.) [µM]","kcat ([5]; pH 7.0, 37° C.) [s⁻¹]",other results
CCc1c2c(nc3ccc(O)cc13)-c1cc3c(c(=O)n1C2)COC(=O)[C@]3(O)CC [SN-38],2,6,similar,no significant differences,,,,,,"Intratumoral concentration, percent higher in EJ/mβG tumors as compared to EJ tumors ([1]; 2, 8 and 24 h): 65-130%; Difference EJ/mβG vs EJ (EJ values as 100%) ([1]; 2 h): 65.63* %; Concentration in EJ xenografts ([1]; 2 h after CPT-11 10 mg/kg i.v.): 43 ± 10.5 ng drug/g tumor; Concentration in EJ/mβG xenografts ([1]; 2 h after CPT-11 10 mg/kg i.v.): 71 ± 13 ng drug/g tumor; Difference EJ/mβG vs EJ (EJ values as 100%) ([1]; 8 h): 127.10* %; Concentration in EJ xenografts ([1]; 8 h after CPT-11 10 mg/kg i.v.): 7.5 ± 0.93 ng drug/g tumor; Concentration in EJ/mβG xenografts ([1]; 8 h after CPT-11 10 mg/kg i.v.): 17 ± 5.56 ng drug/g tumor; Difference EJ/mβG vs EJ (EJ values as 100%) ([1]; 24 h): 71.43* %; Concentration in EJ xenografts [1, 7]: 0.07 ± 0.02 ng drug/g tumor; Concentration in EJ/mβG xenografts [1, 7]: 0.12 ± 0.01 ng drug/g tumor; IC50 ([2]; read-out: IC50 (cytotoxicity), pH 6.6): 2 nM; IC50 ([2]; read-out: IC50 (cytotoxicity), pH 7.4): 6 nM"
SN-38G,32,190,similar,no significant differences,,,,,,Cytotoxicity at the highest concentration investigated ([2]; 1000 nM): non-toxic; Sensitivity of EJ/mβG cells relative to EJ cells (EJ/mβG cells; EJ/mβG vs EJ cells): over 30 times
"E2-20: human beta-glucuronidase variant L243Q, L255Q, T545G, SEQ ID NO: 10 (protein, Laboratory generated variant, E2-20, based upon the human beta-glucuronidase) AAQPALQGGMLYPQESPSRECKELDGLWSFRADFSDNRRRGFEEQWYRRPLWESGPTVDMPVPSSFNDISQDWRLRHFVGWVWYEREVILPERWTQDLRTRVVLRIGSAHSYAIVWVNGVDTLEHEGGYLPFEADISNLVQVGPLPSRLRITIAINNTLTPTTLPPGTIQYLTDTSKYPKGYFVQNTYFDFFNYAGLQRSVLLYTTPTTYIDDITVTTSVEQDSGQVNYQISVKGSNQFKLEVRLLDAENKVVANGTGTQGQLKVPGVSLWWPYLMHERPAYLYSLEVQLTAQTSLGPVSDFYTLPVGIRTVAVTKSQFLINGKPFYFHGVNKHEDADIRGKGFDWPLLVKDFNLLRWLGANAFRTSHYPYAEEVMQMCDRYGIVVIDECPGVGLALPQFFNNVSLHHHMQVMEEVVRRDKNHPAVVMWSVANEPASHLESAGYYLKMVIAHTKSLDPSRPVTFVSNSNYAADKGAPYVDVICLNSYYSWYHDYGHLELIQLQLATQFENWYKKYQKPIIQSEYGAEGIAGFHQDPPLMFTEEYQKSLLEQYHLGLDQKRRKYVVGELIWNFADFMTEQSPTRVLGNKKGIFTRQRQPKSAAFLLRERYWKIANETRYPHSVAKSQCLENSPFTSVD",,,,,116,6.7 ± 0.5,71 ± 3,38 ± 5,30 ± 5,"Km as compared to E1-G [5]: about a three-fold smaller Km; kcat/Km at pH 7.0, fold greater than kcat/Km of wild type at pH 4.5 ([5]; variant at pH 7.0 vs wild type at pH 4.5): about 2 fold"
"E1-A: human β-glucuronidase single amino acid mutant T545A (protein, UniProt P08236 23-651, looked up, variant T545A) Beta-glucuronidase: LQGGMLYPQESPSRECKELDGLWSFRADFSDNRRRGFEEQWYRRPLWESGPTVDMPVPSSFNDISQDWRLRHFVGWVWYEREVILPERWTQDLRTRVVLRIGSAHSYAIVWVNGVDTLEHEGGYLPFEADISNLVQVGPLPSRLRITIAINNTLTPTTLPPGTIQYLTDTSKYPKGYFVQNTYFDFFNYAGLQRSVLLYTTPTTYIDDITVTTSVEQDSGLVNYQISVKGSNLFKLEVRLLDAENKVVANGTGTQGQLKVPGVSLWWPYLMHERPAYLYSLEVQLTAQTSLGPVSDFYTLPVGIRTVAVTKSQFLINGKPFYFHGVNKHEDADIRGKGFDWPLLVKDFNLLRWLGANAFRTSHYPYAEEVMQMCDRYGIVVIDECPGVGLALPQFFNNVSLHHHMQVMEEVVRRDKNHPAVVMWSVANEPASHLESAGYYLKMVIAHTKSLDPSRPVTFVSNSNYAADKGAPYVDVICLNSYYSWYHDYGHLELIQLQLATQFENWYKKYQKPIIQSEYGAEAIAGFHQDPPLMFTEEYQKSLLEQYHLGLDQKRRKYVVGELIWNFADFMTEQSPTRVLGNKKGIFTRQRQPKSAAFLLRERYWKIANETRYPHSVAKSQCLENSLFT",,,,,,,,,,Enzymatic activity relative to wild-type human β-glucuronidase [6]: about 2.5 fold
"S28: human beta-glucuronidase variant Q518R, T545S, E595Y, T599F, SEQ ID NO: 9 (protein, Laboratory generated variant, S28, based upon the human beta-glucuronidase) AAQPALQGGMLYPQESPSRECKELDGLWSFRADFSDNRRRGFEEQWYRRPLWESGPTVDMPVPSSFNDISQDWRLRHFVGWVWYEREVILPERWTQDLRTRVVLRIGSAHSYAIVWVNGVDTLEHEGGYLPFEADISNLVQVGPLPSRLRITIAINNTLTPTTLPPGTIQYLTDTSKYPKGYFVQNTYFDFFNYAGLQRSVLLYTTPTTYIDDITVTTSVEQDSGLVNYQISVKGSNLFKLEVRLLDAENKVVANGTGTQGQLKVPGVSLWWPYLMHERPAYLYSLEVQLTAQTSLGPVSDFYTLPVGIRTVAVTKSQFLINGKPFYFHGVNKHEDADIRGKGFDWPLLVKDFNLLRWLGANAFRTSHYPYAEEVMQMCDRYGIVVIDECPGVGLALPQFFNNVSLHHHMQVMEEVVRRDKNHPAVVMWSVANEPASHLESAGYYLKMVIAHTKSLDPSRPVTFVSNSNYAADKGAPYVDVICLNSYYSWYHDYGHLELIRLQLATQFENWYKKYQKPIIQSEYGAESIAGFHQDPPLMFTEEYQKSLLEQYHLGLDQKRRKYVVGELIWNFADFMTYQSPFRVLGNKKGIFTRQRQPKSAAFLLRERYWKIANETRYPHSVAKSQCLENSPFTSVD",,,,,47,16 ± 3,79 ± 3,72 ± 24,26 ± 3,
